The target of one assay is EZH2 (Homo sapiens, UniProt Q15910). In words: EZH2 activity inhibition assay (rPRC2, 3H SAM, biotinylated oligonucleosomes, FlashPlate). The note with it: rPRC2, 2 nM EZH2, 0.2 μM 3H SAM, top concentration 80 μM. The format is biochemical. As for the experimental part:
(§1) EZH2 Assay: Assays were carried out by mixing rPRC2 together with biotinylated oligonucleosome substrates in the presence of the radio-labeled enzyme co-factor, S-adenosyl-L-methionine (^3H SAM) (Perkin Elmer) and monitoring the enzymatically mediated transfer of tritiated methyl groups from ^3H SAM to histone lysine residues. The amount of resulting tritiated methyl histone product was measured by first capturing the biotinylated oligonucleosomes in streptavidin (SAV) coated FlashPlates (Perkin Elmer), followed by a wash step to remove un-reacted ^3H SAM, and then counting on a TopCount NXT 384 well plate scintillation counter (Perkin Elmer).
A 12.5 μL volume of the HMT enzyme, H3K27me3 peptide and oligonucleosome substrate in assay buffer was added to each well of the assay plate using a Multidrop Combi (ThermoFisher). Compounds were pre-incubated with the enzyme for 20 min, followed by initiation of the methyltransferase reaction by addition of 12.5 μL of 3H SAM in assay buffer (final volume=25 μL). […] Stopped reactions were transferred to SAV coated Flashplates (Perkin Elmer), incubated for 120 min, washed with a plate washer, and then read on the TopCount NXT (1.0 min/well) to measure the amount of methyl histone product formed during the reaction.

A further assay concerns the target Y641N EZH2 (Homo sapiens, UniProt Q15910, Y641N). In words: Y641N EZH2 activity inhibition assay (as EZH2 assay, reconstituted H3K27Me2 oligonucleosomes as substrate). The format is biochemical. As to conditions: Y641N EZH2 mutant enzyme. As for the experimental part: as §1, with “Elmer). The final assay conditions for EZH2 were as follows: 50 mM Tris Buffer pH 8.5, 1 mM DTT, 69 μM Brij-35 detergent, 5.0 mM MgCl2, 0.1 mg/mL BSA, 0.2 μM ^3H SAM, 0.2 μM biotinylated oligonucleosomes, 3.6 μM H3K27me3 peptide and 2 nM EZH2.” for “Elmer).”
A 12.5 μL volume of the HMT enzyme, H3K27me3 peptide and oligonucleosome substrate in assay buffer was added to each well of the assay plate using a Multidrop Combi (ThermoFisher). Compounds were pre-incubated with the enzyme for 20 min, followed by initiation of the methyltransferase reaction by addition of 12.5 μL of 3H SAM in assay buffer (final volume=25 μL). The final concentrations of compounds ranged from a top default concentration of 80 μM down to 0.16 μM in ten 2-fold dilution steps. Reactions were carried out for 60 minutes and quenched with 20 μL per well of 1.96 mM SAH, 50 mM Tris PH 8.5, 200 mM EDTA. Stopped reactions were transferred to SAV coated Flashplates (Perkin Elmer), incubated for 120 min, washed with a plate washer, and then read on the TopCount NXT (1.0 min/well) to measure the amount of methyl histone product formed during the reaction.

Where only a bound is given, the exact number is not on record here.

Our source for the IC50 values is US9206128B2 (Constellation Pharmaceuticals, Inc., priority 2011, dated 2015).

Y641N EZH2, sequence (Q15910 whole entry Y641N): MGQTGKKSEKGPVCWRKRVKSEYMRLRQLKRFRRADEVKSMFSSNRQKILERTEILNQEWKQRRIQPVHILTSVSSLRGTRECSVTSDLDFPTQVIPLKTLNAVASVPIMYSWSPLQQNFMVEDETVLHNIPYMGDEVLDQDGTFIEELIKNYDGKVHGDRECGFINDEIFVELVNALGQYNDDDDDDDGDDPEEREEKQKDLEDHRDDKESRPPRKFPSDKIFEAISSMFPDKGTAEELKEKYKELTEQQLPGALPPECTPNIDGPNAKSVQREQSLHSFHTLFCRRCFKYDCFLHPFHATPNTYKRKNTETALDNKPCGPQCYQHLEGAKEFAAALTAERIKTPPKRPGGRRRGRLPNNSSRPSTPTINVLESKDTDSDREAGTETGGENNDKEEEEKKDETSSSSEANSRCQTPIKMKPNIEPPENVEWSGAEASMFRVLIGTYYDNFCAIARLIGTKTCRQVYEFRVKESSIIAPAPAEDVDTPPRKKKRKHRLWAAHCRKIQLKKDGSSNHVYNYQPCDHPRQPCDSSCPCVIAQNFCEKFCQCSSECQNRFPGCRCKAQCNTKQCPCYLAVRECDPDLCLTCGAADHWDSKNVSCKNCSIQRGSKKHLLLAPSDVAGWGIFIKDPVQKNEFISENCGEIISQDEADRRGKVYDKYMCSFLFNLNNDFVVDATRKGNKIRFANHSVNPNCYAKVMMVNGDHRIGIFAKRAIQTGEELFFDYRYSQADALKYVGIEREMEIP
Y641N EZH2, sequence (O75530 whole entry partner): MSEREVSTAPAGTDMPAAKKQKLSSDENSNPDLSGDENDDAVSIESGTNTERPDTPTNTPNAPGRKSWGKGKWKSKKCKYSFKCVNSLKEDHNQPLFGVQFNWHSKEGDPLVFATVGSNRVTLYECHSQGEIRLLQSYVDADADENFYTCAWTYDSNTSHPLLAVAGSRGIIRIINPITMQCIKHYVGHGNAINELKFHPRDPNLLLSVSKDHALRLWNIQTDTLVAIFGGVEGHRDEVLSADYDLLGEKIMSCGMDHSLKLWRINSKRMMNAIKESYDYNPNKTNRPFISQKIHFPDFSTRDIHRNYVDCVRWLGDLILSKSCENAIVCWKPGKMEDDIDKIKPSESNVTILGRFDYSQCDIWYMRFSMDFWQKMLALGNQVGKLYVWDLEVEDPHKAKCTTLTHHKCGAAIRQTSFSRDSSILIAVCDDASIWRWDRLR
Y641N EZH2, sequence (Q15022 whole entry partner): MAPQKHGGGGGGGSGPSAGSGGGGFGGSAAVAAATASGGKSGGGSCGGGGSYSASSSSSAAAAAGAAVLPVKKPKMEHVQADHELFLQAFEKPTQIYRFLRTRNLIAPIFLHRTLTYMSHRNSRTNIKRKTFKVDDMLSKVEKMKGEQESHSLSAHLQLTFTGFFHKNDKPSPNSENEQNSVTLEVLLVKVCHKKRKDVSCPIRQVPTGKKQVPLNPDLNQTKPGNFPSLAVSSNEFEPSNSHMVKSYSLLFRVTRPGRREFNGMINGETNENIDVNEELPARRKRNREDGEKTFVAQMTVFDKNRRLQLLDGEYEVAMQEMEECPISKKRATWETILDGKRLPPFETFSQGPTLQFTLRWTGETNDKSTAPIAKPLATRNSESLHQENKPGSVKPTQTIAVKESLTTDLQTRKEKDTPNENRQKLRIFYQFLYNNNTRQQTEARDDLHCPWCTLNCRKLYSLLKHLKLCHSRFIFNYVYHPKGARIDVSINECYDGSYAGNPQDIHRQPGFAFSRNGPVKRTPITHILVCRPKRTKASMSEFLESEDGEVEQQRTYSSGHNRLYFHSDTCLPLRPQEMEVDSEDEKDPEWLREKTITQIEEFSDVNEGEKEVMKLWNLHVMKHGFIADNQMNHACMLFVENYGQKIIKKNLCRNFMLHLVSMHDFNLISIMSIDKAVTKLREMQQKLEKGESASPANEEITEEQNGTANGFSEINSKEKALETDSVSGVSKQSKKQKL
EZH2, sequence (Q15910 whole entry): as the sequence (Q15910 whole entry Y641N) above, with N641Y counted along it
EZH2, sequence (O75530 whole entry partner): as the sequence (O75530 whole entry partner) above
EZH2, sequence (Q15022 whole entry partner): as the sequence (Q15022 whole entry partner) above

Regarding `Cc1cc(C)c(CNC(=O)c2ccc(Oc3ccccc3C#N)c(Cl)c2)c(=O)[nH]1` [Compound I-10, 3-chloro-4-(2-cyanophenoxy)-N-((2-hydroxy-4,6-dimethylpyridin-3-yl)methyl)benzamide], the IC50 at EZH2 and against Y641N EZH2 was 1 to 10 µM in each case.

Take `Cc1cc(C)c(CNC(=O)c2ccc(C(C)Oc3ccccc3)c(F)c2)c(=O)[nH]1` (single isomer, unassigned) [Compound I-160, (R)— or (S)-3-fluoro-N-((2-hydroxy-4,6-dimethylpyridin-3-yl)methyl)-4-(1-phenoxyethyl)benzamide]: the IC50 against EZH2 and at Y641N EZH2 was more than 80 µM in each case.

For the molecule `Cc1cc(C)c(CNC(=O)c2ccc(COc3cccc(-c4ccc(N)nc4)c3)cc2)c(=O)[nH]1` [Compound I-3, 4-((3-(6-aminopyridin-3-yl)phenoxy)methyl)-N-((2-hydroxy-4,6-dimethylpyridin-3-yl)methyl)benzamide], the IC50 against EZH2 was less than 1 µM; against Y641N EZH2 it was 1 to 10 µM.

In the case of `Cc1cc(C)c(CNC(=O)c2ccc(C(O)c3ccccc3)cc2)c(=O)[nH]1` (stereo not drawn) [Compound I-24], the half-inhibitory concentration (IC50) at EZH2 was 10 to 50 µM; against Y641N EZH2 it was more than 50 µM.

For `Cc1cc(C)c(CNC(=O)c2ccc(C(C)Oc3ncccn3)cc2)c(=O)[nH]1` (stereo not drawn) [Compound I-76, N-((2-hydroxy-4,6-dimethylpyridin-3-yl)methyl)-4-(1-(pyrimidin-2-yloxy)ethyl)benzamide], the IC50 is 10 to 50 µM at EZH2 and more than 80 µM at Y641N EZH2.

In the case of `Cc1cc(C)c(CNC(=O)c2ccc([C@H](C)Oc3ccccc3)cc2)c(O)n1` [Compound I-31, (S)—N-((2-hydroxy-4,6-dimethylpyridin-3-yl)methyl)-4-(1-phenoxyethyl)benzamide], the IC50 against EZH2 and against Y641N EZH2 was less than 1 µM in each case.

Consider `Cc1cc(C)c(CNC(=O)c2ccc(OCc3ccccc3)cc2)c(=O)[nH]1` [Compound I-12, 4-(benzyloxy)-N-((2-hydroxy-4,6-dimethylpyridin-3-yl)methyl)benzamide], for which the IC50 on EZH2 was in the range of 1 to 10 µM; on Y641N EZH2, 10 to 50 µM.

For `Cc1cc(C)c(CNC(=O)c2ccc(C(C)Oc3ccccc3)c(F)c2)c(=O)[nH]1` (stereo not drawn) [Compound I-63, 3-fluoro-N-((2-hydroxy-4,6-dimethylpyridin-3-yl)methyl)-4-(1-phenoxyethyl)benzamide], the IC50 on EZH2 and on Y641N EZH2 was less than 1 µM in each case.

Turning to `Cc1cc(C)c(CNC(=O)c2ccc(C(C)COc3ccccc3)cc2)c(O)n1` (stereo not drawn) [Compound I-116, N-((2-hydroxy-4,6-dimethylpyridin-3-yl)methyl)-4-(1-phenoxypropan-2-yl)benzamide], the IC50 was less than 1 µM against EZH2 and more than 80 µM against Y641N EZH2.

With `Cc1cc(C)c(CNC(=O)c2ccc(C(C)Oc3cccnc3)nc2)c(=O)[nH]1` (stereo not drawn) [Compound I-78, N-((2-hydroxy-4,6-dimethylpyridin-3-yl)methyl)-6-(1-(pyridin-3-yloxy)ethyl)nicotinamide], the IC50 against EZH2 was 1 to 10 µM; against Y641N EZH2, more than 80 µM.

Take `Cc1cc(C)c(CNC(=O)c2ccc(Oc3ncccn3)cc2)c(=O)[nH]1` [Compound I-14]: the results for the IC50 against EZH2 and at Y641N EZH2 were more than 50 µM and more than 80 µM, respectively.

Consider `Cc1cc(C)c(CNC(=O)c2ccc(Oc3ccccc3)cc2Cl)c(=O)[nH]1` [Compound I-22], for which the results for the IC50 against EZH2 and at Y641N EZH2 were less than 1 µM and 1 to 10 µM, respectively.

On to `Cc1cc(C)c(CNC(=O)c2ccc(C(C)(O)c3ccccc3)cc2)c(=O)[nH]1` (stereo not drawn) [Compound I-25], for which the IC50 against EZH2 is 1 to 10 µM; against Y641N EZH2, 10 to 50 µM.

For `Cc1cc(C)c(CNC(=O)c2ccc(Nc3ccccc3)cc2)c(=O)[nH]1` [Compound I-19], the IC50 on EZH2 is 1 to 10 µM; against Y641N EZH2, 10 to 50 µM.

As for `Cc1cc(C)c(CNC(=O)c2ccc([C@H](C)Oc3ccccc3C#N)cc2)c(=O)[nH]1` [Compound I-163], the IC50 against EZH2 and on Y641N EZH2 was less than 1 µM in each case.

`Cc1cc(C)c(CNC(=O)c2ccc([C@@H](C)Oc3ccccc3C#N)cc2)c(=O)[nH]1` [Compound I-162]: the results for the IC50 against EZH2 and on Y641N EZH2 were 1 to 10 µM and more than 80 µM, respectively.

Consider `Cc1cc(C(F)(F)F)[nH]c(=O)c1CNC(=O)c1ccc(Oc2ccccc2)cc1` [Compound I-47, N-((2-hydroxy-4-methyl-6-(trifluoromethyl)pyridin-3-yl)methyl)-4-phenoxybenzamide], for which the IC50 was more than 50 µM against EZH2 and 10 to 50 µM against Y641N EZH2.

Turning to `Cc1cc(C)c(CNC(=O)c2ccc([C@H](C)Oc3ccccc3)cc2C)c(=O)[nH]1` [Compound I-55, (S)—N-((2-hydroxy-4,6-dimethylpyridin-3-yl)methyl)-2-methyl-4-(1-phenoxyethyl)benzamide], the IC50 against EZH2 and against Y641N EZH2 was less than 1 µM throughout.

For the molecule `Cc1cc(C)c(CNC(=O)c2ccc(C(C)Oc3ccncn3)cc2)c(=O)[nH]1` (stereo not drawn) [Compound I-155, N-((2-hydroxy-4,6-dimethylpyridin-3-yl)methyl)-4-(1-(pyrimidin-4-yloxy)ethyl)benzamide], the IC50 is less than 1 µM at EZH2 and 1 to 10 µM against Y641N EZH2.

As to `Cc1cc(C)c(CNC(=O)c2ccc(Oc3ccccc3)c(C)c2)c(=O)[nH]1` [Compound I-37, N-((2-hydroxy-4,6-dimethylpyridin-3-yl)methyl)-3-methyl-4-phenoxybenzamide], the IC50 on EZH2 and on Y641N EZH2 was 1 to 10 µM in each case.

In the case of `Cc1cc(C)c(CNC(=O)c2ccc(S(=O)(=O)c3ccccc3)cc2)c(=O)[nH]1` [Compound I-26, N-((2-hydroxy-4,6-dimethylpyridin-3-yl)methyl)-4-(phenylsulfonyl)benzamide], the IC50 against EZH2 is 10 to 50 µM; on Y641N EZH2, more than 80 µM.

With `Cc1cc(C)c(CNC(=O)c2ccc(C(C)OC3CCCCC3)cc2)c(=O)[nH]1` (stereo not drawn) [Compound I-85, 4-(1-(cyclohexyloxy)ethyl)-N-((2-hydroxy-4,6-dimethylpyridin-3-yl)methyl)benzamide], the IC50 at EZH2 is less than 1 µM; at Y641N EZH2, 1 to 10 µM.

With `Cc1cc(C)c(CNC(=O)c2ccc(C(C)Oc3ccccn3)cc2)c(=O)[nH]1` (stereo not drawn) [Compound I-60, N-((2-hydroxy-4,6-dimethylpyridin-3-yl)methyl)-4-(1-(pyridin-2-yloxy)ethyl)benzamide], the IC50 at EZH2 was less than 1 µM; against Y641N EZH2 it was 1 to 10 µM.

On to `CNc1cc(C)[nH]c(=O)c1CNC(=O)c1ccc(Oc2ccccc2)cc1` [Compound I-194, N-((2-hydroxy-6-methyl-4-(methylamino)pyridin-3-yl)methyl)-4-phenoxybenzamide], for which the IC50 was less than 1 µM at EZH2 and more than 80 µM against Y641N EZH2.

As to `Cc1cc(CNC(=O)c2ccc(C(C)Oc3ccccc3)cc2)c(=O)[nH]c1C` (stereo not drawn) [Compound I-157], the IC50 against EZH2 and against Y641N EZH2 was more than 80 µM in each case.

For the molecule `Cc1cc(C)c(CNC(=O)c2ccc(N(C)c3ccccc3)cc2)c(=O)[nH]1` [Compound I-13], the IC50 was less than 1 µM on EZH2 and 1 to 10 µM against Y641N EZH2.

As to `Cc1cc(C)c(CNC(=O)c2ccc(C(C)Oc3ccccc3C)cc2)c(=O)[nH]1` (stereo not drawn) [Compound I-38, N-((2-hydroxy-4,6-dimethylpyridin-3-yl)methyl)-4-(1-(o-tolyloxy)ethyl)benzamide], the IC50 was less than 1 µM against EZH2 and 1 to 10 µM on Y641N EZH2.

As for `Cc1cc(C)c(CNC(=O)c2ccc(C(C)Oc3ccccc3)cc2)c(=O)[nH]1` (stereo not drawn) [Compound I-23, N-((2-hydroxy-4,6-dimethylpyridin-3-yl)methyl)-4-(1-phenoxyethyl)benzamide], the IC50 against EZH2 and against Y641N EZH2 was less than 1 µM each time.

For the molecule `COc1ccnc(Oc2ccc(C(=O)NCc3c(C)cc(C)[nH]c3=O)cc2)n1` [Compound I-15], the IC50 is more than 50 µM at EZH2 and more than 80 µM against Y641N EZH2.

As for `Cc1cc(C)c(CNC(=O)c2ccc(C(C)Oc3ccccc3)nn2)c(=O)[nH]1` (stereo not drawn) [Compound I-182, N-((2-hydroxy-4,6-dimethylpyridin-3-yl)methyl)-6-(1-phenoxyethyl)pyridazine-3-carboxamide], the IC50 is 1 to 10 µM against EZH2 and more than 80 µM at Y641N EZH2.

A word on the IC50: it is the concentration at which inhibition is half-maximal. Lower therefore signals greater potency in that assay.
